System: LG0567-F671-PDC complex spheroids viability
Assay: Anticancer human tumor LG0567-F671-PDC patient-derived lung adenocarcinoma cell line growth inhibition [RAS]
Settings: for viability, T/C: stronger effect = lower value
Description: RAS pathway inhibitors in Combinations in Complex Spheroids
A high-throughput screen of multi-cell type tumor spheroids was designed to identify active combinations of RAS pathway inhibitors and targeted small molecules. Complex spheroids include a stromal component modeled by human endothelial cells (HUVEC) and fibroblasts modeled by human mesenchymal stem cells (MSCs). The concentration ranges selected for each drug and investigational agent were based upon clinically achievable concentrations if the clinical Cmax of the agent was known.
Compounds. The drugs and investigational agents: abemaciclib (NSC768073), cobimetinib (NSC768068), divarasib (GDC6063, NSC841802), docetaxel (NSC628503), GDC-1971 (RLY-1971, NSC841576), gemcitabine (NSC613327), inavolisib (NSC800729), ipatasertib (NSC767898), KB-0742 (NSC834161), MRTX-1133 (NSC836407), osimertinib (NSC779217), RMC-4630 (NSC839698), RMC-6236 (NSC851965), RMC-6291 (NSC852671), Ro-3306 (NSC812927), sapanisertib (NSC764658), SN-38 (NSC673596), staurosporine (NSC755774), SY5609 (NSC837396), and tovorafenib (DAY101, NSC766906), were obtained from the National Cancer Institute (NCI) Developmental Therapeutics Program Chemical Repository. The FDA-approved anticancer drug set is available from the NCI Developmental Therapeutics Program. […] The stock solutions were prepared in dimethyl sulfoxide (DMSO, Sigma-Aldrich, St. Louis, MO, cat. D2650) at 800-fold the tested concentration and stored at -70 degrees C prior to their use. All drugs and investigational agents were tested over a range starting from a high concentration at or near the clinical Cmax and decreasing in half-log increments. If the clinical Cmax for an agent had not been determined, the highest concentration tested was 10 microM.
Cell Culture. All cells were maintained in an incubator at 37 degrees C and 5% CO2 with 95% humidity. The PDC lines were cultured according to standard operating procedures established by the NCI PDMR. All PDCs were thawed and cultured in Matrigel-coated flasks prepared with a working solution of 1X Ham's F-12 nutrient mix, without supplementation (Invitrogen, Waltham, MA, cat. 11765054), 100 U/mL penicillin-streptomycin (Invitrogen, cat. 15140122), and 2.5% Matrigel (Corning Inc., Corning, NY, cat. 354248) for the first three passages. The 362531-283-R-J2-PDC and 782815-120-R-J1-PDC lines were cultured in 6C/Colon 1B media, which includes advanced DMEM/F-12 (Thermo Fisher Scientific, cat. 12634028), 10 mM HEPES (Thermo Fisher Scientific, cat. 15630080), 1X GlutaMAX supplement (Thermo Fisher Scientific, cat. 35050061), 0.1 mg/mL primocin (InvivoGen, San Diego, CA, cat. ant-pm-2), 10% defined fetal bovine serum, heat inactivated (HyClone Laboratories Inc., Logan, UT, cat. SH30070.03HI), 50% L-WRN conditioned media (ATCC, cat. CRL-3276), 1.25 mM N-Acetyl-L-cysteine (Sigma-Aldrich, cat. A9165), 10 mM nicotinamide (Sigma-Aldrich, cat. N0636), 1X B-27 supplement (Thermo Fisher Scientific, cat. 17504044), 1X N-2 supplement (Thermo Fisher Scientific, cat. 17502048), 50 ng/mL human EGF (Thermo Fisher Scientific, cat. PHG0311), and 10 microM Y-27632 dihydrochloride (Tocris Bioscience, cat. 1254). The K12877-001-R-J1-PDC line was cultured in 6I media, which includes all 6C/Colon 1B media plus 10 ng/mL human FGF-10 (PeproTech, cat. 100-26), 1 ng/mL human FGF-2 (PeproTech, cat. 100-18B), 1 µM prostaglandin E2 (Tocris Bioscience, cat. 2296), […] hydrocortisone (Sigma-Aldrich, cat. H4001), and […] bovine insulin (Sigma-Aldrich, cat. I6634). The K86415-001-R-J1-PDC line was cultured in 6D media, which includes all 6C/Colon 1B media components minus the L-WRN conditioned media. The 485176-168-R4-J1-PDC was cultured in PANC media, which includes all 6C/Colon 1B media plus 100 ng/mL human FGF-10 (PeproTech, cat. 100-26), 500 nM SB-431542 (Selleckchem, cat. S1067), and 10 nM gastrin (Tocris Bioscience, cat. 3006). […]
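Further: spheroids exposed to compound for seven days before readout.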
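Wherever IC50 is given: luminescence signal used as a proxy for viable cells.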

`NC1c2ccccc2OC12CCN(c1cnc3c(N4CCCc5ncccc54)n[nH]c3n1)CC2` (stereo not given) + C=CC(=O)N1CCN(c2nc(OCC3CCCN3C)nc3c(F)c(-c4nc(N)cc(C)c4C(F)(F)F)c(Cl)cc23)C(C)C1 showed an IC50 (curve of first compound, second compound 0.00316 µM) of under 31.6 nM, an IC50 (curve of first compound, second compound 0.01 µM) of under 31.6 nM and an IC50 (curve of first compound, second compound 0.0316 µM) of under 31.6 nM. For the same compound, the IC50 (curve of first compound, second compound 0.1 µM) was under 31.6 nM, the IC50 (curve of first compound, second compound 0.316 µM) was under 31.6 nM and the IC50 (curve of first compound, second compound 1 µM) was under 31.6 nM. The viability, T/C (second compound 0.00316 µM, first compound 0.0316 µM) was 6.27%, the viability, T/C (second compound 0.00316 µM, first compound 0.1 µM) was 4.36% and the viability, T/C (second compound 0.00316 µM, first compound 0.316 µM) was 3.09%. The viability, T/C (second compound 0.00316 µM, first compound 1 µM) was 2.99%, the viability, T/C (second compound 0.00316 µM, first compound 3.16 µM) was 2.79% and the viability, T/C (second compound 0.00316 µM, first compound 10 µM) was 3.28%. For the same compound, the viability, T/C (second compound 0.01 µM, first compound 0.0316 µM) was 5.37%, the viability, T/C (second compound 0.01 µM, first compound 0.1 µM) was 3.73% and the viability, T/C (second compound 0.01 µM, first compound 0.316 µM) was 2.99%. It also gave a viability, T/C (second compound 0.01 µM, first compound 1 µM) of 2.89%, a viability, T/C (second compound 0.01 µM, first compound 3.16 µM) of 2.44% and a viability, T/C (second compound 0.01 µM, first compound 10 µM) of 2.64%. The viability, T/C (second compound 0.0316 µM, first compound 0.0316 µM) was 4.86%, the viability, T/C (second compound 0.0316 µM, first compound 0.1 µM) was 3.54% and the viability, T/C (second compound 0.0316 µM, first compound 0.316 µM) was 3.04%. For the same compound, the viability, T/C (second compound 0.0316 µM, first compound 1 µM) was 3.15%, the viability, T/C (second compound 0.0316 µM, first compound 3.16 µM) was 2.61% and the viability, T/C (second compound 0.0316 µM, first compound 10 µM) was 3.04%. For the same compound, the viability, T/C (second compound 0.1 µM, first compound 0.0316 µM) was 5.91%, the viability, T/C (second compound 0.1 µM, first compound 0.1 µM) was 4.17% and the viability, T/C (second compound 0.1 µM, first compound 0.316 µM) was 2.81%. The viability, T/C (second compound 0.1 µM, first compound 1 µM) was 2.78%, the viability, T/C (second compound 0.1 µM, first compound 3.16 µM) was 3% and the viability, T/C (second compound 0.1 µM, first compound 10 µM) was 2.64%. For the same compound, the viability, T/C (second compound 0.316 µM, first compound 0.0316 µM) was 5.55%, the viability, T/C (second compound 0.316 µM, first compound 0.1 µM) was 3.15% and the viability, T/C (second compound 0.316 µM, first compound 0.316 µM) was 3.61%. The viability, T/C (second compound 0.316 µM, first compound 1 µM) was 3.03%, the viability, T/C (second compound 0.316 µM, first compound 3.16 µM) was 2.75% and the viability, T/C (second compound 0.316 µM, first compound 10 µM) was 2.78%. It also gave a viability, T/C (second compound 1 µM, first compound 0.0316 µM) of 5.5%, a viability, T/C (second compound 1 µM, first compound 0.1 µM) of 4.65% and a viability, T/C (second compound 1 µM, first compound 0.316 µM) of 3.58%. It also gave a viability, T/C (second compound 1 µM, first compound 1 µM) of 3.3%, a viability, T/C (second compound 1 µM, first compound 3.16 µM) of 3.79% and a viability, T/C (second compound 1 µM, first compound 10 µM) of 3.5%.
In the case of `CC1(O)CCCC1n1c(=O)c(C(F)F)cc2cnc(NC3CCN(S(C)(=O)=O)CC3)nc21` (stereo not given), the viability, T/C (compound 0.0316 µM) is reported as 88.7% [middle of 4 runs], the viability, T/C (compound 0.1 µM) is reported as 86.2% [middle of 4 runs] and the viability, T/C (compound 0.316 µM) is reported as 81.6% [middle of 4 runs]. For the same compound, the viability, T/C (compound 1 µM) was 91.5% [middle of 4 runs], the viability, T/C (compound 3.16 µM) was 93.8% [middle of 4 runs] and the viability, T/C (compound 10 µM) was 47% [middle of 4 runs].
`CCn1c(-c2cc(N3CCN(C)CC3)cnc2C(C)OC)c2c3cc(ccc31)-c1csc(n1)CC(NC(=O)C1CC1C)C(=O)N1CCCC(N1)C(=O)OCC(C)(C)C2` (stereo not given) was tested, and the viability, T/C (compound 0.000949 µM) was 25.7% [middle of 8 runs], the viability, T/C (compound 0.003 µM) was 11.3% [middle of 8 runs] and the viability, T/C (compound 0.00949 µM) was 6.53% [middle of 8 runs]. For the same compound, the viability, T/C (compound 0.03 µM) was 4.27% [middle of 8 runs], the viability, T/C (compound 0.0949 µM) was 3.45% [middle of 8 runs] and the viability, T/C (compound 0.3 µM) was 2.94% [middle of 8 runs]. For the same compound, the IC50 (compound alone, run of 08/26/2024) was under 0.949 nM.

Reference: PubChem BioAssay AID2060889 (Molecular Pharmacology Branch, DTP, NCI, 2025)
